From article PMC6820105, “Data on synthesis, ADME and pharmacological properties and early safety pharmacology evaluation of a series of novel NURR1/NOT agonist potentially useful for the treatment of Parkinson's disease” (Data in Brief, 2019) come the findings set out here.

Where two headings read alike, the source gives them in different places.

Series [1] relates to anesthetized mongrel dogs. Put plainly: Hemodynamic, electrocardiographic and electrophysiological effects in anesthetized mongrel dogs. It counts as in vivo. As to conditions: dog, 10 mg/kg single 5-min i.v. infusion, monitored up to 60 min, n = 3. The method, then:
Six fasted adult mongrel dogs (weighing 18–26 kg) were anesthetized with 20 mg/kg sodium thiopental i.v. Animals were artificially ventilated with a gaseous mixture composed of O^2/air supplemented with around 1.5% end-tidal fraction of isoflurane. Tidal volume and respiratory rate was set at 20 mL/kg and 16 breaths/min. Arterial blood gas was controlled and respiratory adjusted to maintain pH between 7.36 and 7.44, PaO^2 > 80 mmHg and PaCO^2 < 40 mmHg. Four limbs electrodes were positioned to obtain a surface ECG. Two bipolar electrodes were positioned in the right atrium via a jugular access, one to record the atrial electrogram and the second one to stimulate the atrium. A bipolar electrode and a quadripolar electrode were inserted via venous and arterial femoral access and positioned in the right ventricular apex and in the His bundle region, respectively. These electrodes were connected to a programmable stimulator and to a computerized physiograph system. […]
The auricular diastolic stimulation threshold was evaluated with rectangular current pulse (2 ms duration) increased in steps of 0.1 mA and delivered at fixed rate pacing (S1S1) of 400 or 350 ms in function of animal basal cycle length. […]

The nature of series [2]: Plasma and heart concentrations after 5-min i.v. administration in anesthetized male Hartley guinea pigs. Particulars: iv, guinea pig, 10 mg/kg 5-min i.v. Type of series: in vivo. The method, then: Cpd 38 was dissolved in a 75% PEG400 aqueous solution and administered to guinea pigs (n = 6) at 10 mg/kg as a single 5-min intravenous infusion under a volume of 0.5 mL/kg. Control animals (n = 10) received the vehicle only, under the same experimental conditions.
Blood samples were drawn from a carotid artery at 10 and 30 minutes after the beginning of the drug perfusion and after centrifugation plasma samples were stored frozen until analysis.
At the end of the experiment (around 30 minutes following the beginning of the drug perfusion), the heart was removed and a few grams of tissue were collected from right and left ventricles stored frozen at - 20 °C until analysis.
Analysis of samples was performed using an exploratory LC-MS-MS assay method. Plasma (LOQ of 2 ng/mL) and tissue (LOQ of 10 ng/g) concentrations of Cpd 38 (expressed as active ingredient).were determined.

Series [3] is described as follows: Plasma and heart concentrations after 5-min i.v. administration in anesthetized mongrel dogs. Type of series: in vivo. As to conditions: iv, dog, 10 mg/kg 5-min i.v. The procedure:
Cpd 38 was dissolved in a 75% PEG400 aqueous solution and administered to dogs (n = 3) at 10 mg/kg as a single 5-min intravenous infusion under a volume of 0.5 mL/kg. Control animals (n = 3) received the vehicle only, under the same experimental conditions.
Blood samples were drawn from a femoral artery at 10 and 60 minutes after the beginning of the drug perfusion and after centrifugation plasma samples were stored frozen at −20 °C until analysis.
At the end of the experiment (around 60 minutes following the beginning of the drug perfusion), the heart was removed and a few grams of tissue were collected from right and left ventricles stored frozen at - 20 °C until analysis.
Analysis of samples was performed using an exploratory LC-MS-MS assay method. Plasma (LOQ of 2 ng/mL) and tissue (LOQ of 3 ng/g) concentrations of Cpd 38 were determined.

Series [4] concerns anesthetized male Hartley guinea pigs. The experiment in a line: Hemodynamic and electrocardiographic effects in anesthetized male Hartley guinea pigs. Type of series: in vivo. As to conditions: guinea pig, 10 mg/kg single 5-min i.v. infusion, monitored up to 30 min, n = 6. The method, then: Male Hartley guinea pigs (weighing 400–500 g) were anesthetized with 35 mg/kg sodium pentobarbital i.p. and let under spontaneous breathing conditions. The body temperature was maintained at 37.5 ± 0.5 °C throughout the experiment. For implantation of vascular catheters, cutaneous incision, subcutaneous and muscular dissections were performed after application of local anesthetic (lidocain, 20 mg/kg). A carotid artery and a jugular vein were catheterized to allow recording of arterial blood pressure and intravenous administration of the drug, respectively. The arterial micromanometer catheter was connected to a pressure transducer. For the electrocardiogram recording, five electrodes were inserted in the subcutaneous layer of fore- and hind-limb. The pressure transducer and ECG electrodes were linked to Gould pre-amplifiers. The amplifiers were connected to a Notocord-Hem computerized data acquisition system and recorded at a sampling rate of 1000 Hz. Either lead I or lead II were recorded, depending on which the better separation of T wave from P wave of the next complex was achieved.
Cpd 38 was dissolved in a 75% PEG400 aqueous solution and administered to guinea pigs (n = 6) at 10 mg/kg as a single 5-min intravenous infusion under a volume of 0.5 mL/kg. Control animals (n = 10) received the vehicle only, under the same experimental conditions. […]

Series [5] has as its target NURR1/NOT nuclear receptor (Homo sapiens, UniProt P43354). Put plainly: Gal4 reporter gene assay (EC50 / Emax Gal4). Particulars: for Emax Gal4: Table 1. It counts as cell-based. On the technique in general: A reporter such as luciferase makes a cellular process visible.
[6] abbreviates: heart (right and left ventricles), read-out: Heart concentration.
Setting [7] is: plasma, mean ± SD, n = 6, read-out: Total plasma concentration.
[8] abbreviates: plasma, read-out: Total plasma concentration.
Setting [9] is: plasma, mean ± SD, n = 3, read-out: Total plasma concentration.
The mark [10] stands for this setting: Table 1, replacements of the hydroxymethyl of cpd 4, read-out: EC50 Gal4.

Sequence of NURR1/NOT nuclear receptor (P43354 whole entry, the tested form may be a part): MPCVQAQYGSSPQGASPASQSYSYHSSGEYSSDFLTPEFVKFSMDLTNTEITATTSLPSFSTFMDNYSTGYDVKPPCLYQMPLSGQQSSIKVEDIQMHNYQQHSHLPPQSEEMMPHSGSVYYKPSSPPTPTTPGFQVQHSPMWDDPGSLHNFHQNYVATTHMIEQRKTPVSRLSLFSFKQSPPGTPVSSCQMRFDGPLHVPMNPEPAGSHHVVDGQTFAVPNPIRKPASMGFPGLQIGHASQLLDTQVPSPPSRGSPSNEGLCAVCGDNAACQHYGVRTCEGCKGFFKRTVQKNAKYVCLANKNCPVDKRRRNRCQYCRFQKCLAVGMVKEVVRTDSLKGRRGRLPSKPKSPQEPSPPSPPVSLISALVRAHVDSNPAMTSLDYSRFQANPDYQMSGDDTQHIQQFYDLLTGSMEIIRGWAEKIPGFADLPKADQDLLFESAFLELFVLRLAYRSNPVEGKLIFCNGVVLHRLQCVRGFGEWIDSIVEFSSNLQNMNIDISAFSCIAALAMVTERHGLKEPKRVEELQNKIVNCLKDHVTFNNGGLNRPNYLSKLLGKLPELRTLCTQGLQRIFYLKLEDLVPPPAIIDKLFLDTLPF

As to `CC(C)(O)c1cccc(-c2ccc3nc(-c4ccc(Cl)cc4)cn3c2)c1` [Cpd 38, 2-(3-[2-(4-Chlorophenyl)imidazo[1,2-a]pyridin-6-yl]phenyl)propan-2-ol], the “Hemodynamic, ECG and electrophysiological effects” value in series [1] is “No major hemodynamic, ECG and electrophysiological effects were observed”. Also, the concentration at 30 min in series [2] (heart (right and left ventricles), mean ± SD, n = 6, read-out: Heart concentration) was found to be 6010 ± 964 ng/g; in series [2] (setting [6]) it was 16.6 µM; in series [2] (setting [7]), 2570 ± 533 ng/mL; in series [2] (setting [8]) it was 7.1 µM. The concentration at 10 min was found to be 4660 ± 1350 ng/mL in series [2] (setting [7]), 12.8 µM in series [2] (setting [8]), 23400 ± 2830 ng/mL in series [3] (setting [9]) and 64.5 µM in series [3] (setting [8]). Moreover, the concentration at 60 min in series [3] (heart (right and left ventricles), mean ± SD, n = 3, read-out: Heart concentration) is 14600 ± 2700 ng/g; in series [3] (setting [6]), 40.2 µM; in series [3] (setting [9]), 10100 ± 769 ng/mL; in series [3] (setting [8]), 27.8 µM. In addition, in series [4], the “Hemodynamic and ECG effects” value is “No major hemodynamic and ECG effects were observed”.
As usually defined, the melting point is the temperature, or range, at which the solid turns liquid. `OC1(c2cccc(-c3ccc4nc(-c5ccc(Cl)cc5)cn4c3)c2)CCOCC1` [Cpd 40, 4-(3-(2-(4-chlorophenyl)imidazo[1,2-a]pyridin-6-yl)phenyl)tetrahydro-2H-pyran-4-ol] came in with a melting point of 224 to 225 °C.
On the same count and under the same terms, the same measure for `CC(O)(CO)c1cccc(-c2ccc3nc(-c4ccc(Cl)cc4)cn3c2)c1` (stereo not drawn) [Cpd 41, 2-(3-(2-(4-chlorophenyl)imidazo[1,2-a]pyridin-6-yl)phenyl)propane-1,2-diol]: 192 to 194 °C; for `Cc1cccc(-c2ccc3nc(-c4ccc(Cl)cc4)cn3c2)c1` [Cpd S1, 2-(4-Chlorophenyl)-6-(m-tolyl)imidazo[1,2-a]pyridine]: 145 to 147 °C.
`COCc1cccc(-c2ccc3nc(-c4ccc(Cl)cc4)cn3c2)c1` [Cpd S2, 2-(4-Chlorophenyl)-6-(3-(methoxymethyl)phenyl)imidazo[1,2-a]pyridine] gave a melting point of 135 to 137 °C.
Still for that read-out and setting: the same measure for `CN(C)Cc1cccc(-c2ccc3nc(-c4ccc(Cl)cc4)cn3c2)c1` [Cpd S3, 1-(3-(2-(4-chlorophenyl)imidazo[1,2-a]pyridin-6-yl)phenyl)-N,N-dimethylmethanamine]: 290 to 292 °C.
As usually defined, the EC50 is the midpoint of the concentration-response curve. Take `Clc1ccc(-c2cn3cc(-c4cccc(CN5CCCC5)c4)ccc3n2)cc1` [Cpd S4, 1-(3-(2-(4-chlorophenyl)imidazo[1,2-a]pyridin-6-yl)phenyl)-N-pyrolidine]: the EC50 in series [5] (setting [10]) was more than 3000 nM.
As to `Clc1ccc(-c2cn3cc(-c4cccc(CN5CCOCC5)c4)ccc3n2)cc1` [Cpd S5, 1-(3-(2-(4-chlorophenyl)imidazo[1,2-a]pyridin-6-yl)phenyl)-N-morpholine], the concentration giving a half-maximal response (EC50) in series [5] (setting [10]) was more than 3000 nM.
Turning to `NC(=O)c1cccc(-c2ccc3nc(-c4ccc(Cl)cc4)cn3c2)c1` [Cpd S7, 3-(2-(4-chlorophenyl)imidazo[1,2-a]pyridin-6-yl)benzamide], the melting point lay within 246 to 248 °C. In addition, in series [5], the “Emax Gal4” value is 210 ± 5. Moreover, the 50% effective concentration (EC50) in series [5] (setting [10]) stood at 1580 ± 35 nM.
Take `CNC(=O)c1cccc(-c2ccc3nc(-c4ccc(Cl)cc4)cn3c2)c1` [Cpd S8, 3-(2-(4-chlorophenyl)imidazo[1,2-a]pyridin-6-yl)-N-methylbenzamide]: the melting point lay within 225 to 227 °C. Further, the “Emax Gal4” value in series [5] is listed as 226 ± 66. The EC50 in series [5] (setting [10]) was 87 ± 28 nM.
The compound `CCN(CC)C(=O)c1cccc(-c2ccc3nc(-c4ccc(Cl)cc4)cn3c2)c1` [Cpd S9, 3-(2-(4-chlorophenyl)imidazo[1,2-a]pyridin-6-yl)-N,N-diethylbenzamide] showed a melting point of 162 to 164 °C.
Still for that read-out and setting: the same measure for `N#Cc1cccc(-c2ccc3nc(-c4ccc(Cl)cc4)cn3c2)c1` [Cpd S10, 3-(2-(4-chlorophenyl)imidazo[1,2-a]pyridin-6-yl)benzonitrile]: 195 to 197 °C.
With `CC(C)CC(O)c1cccc(-c2ccc3nc(-c4ccc(Cl)cc4)cn3c2)c1` (stereo not drawn) [Cpd S15, 1-(3-(2-(4-chlorophenyl)imidazo[1,2-a]pyridin-6-yl)phenyl)-3-methylbutan-1-ol], in series [5] (Table 2, alkyl or aryl groups on the carbinol, read-out: EC50 Gal4 t), the EC50 is more than 3000 nM.
